The results in this text go back to US5981545A, “N-linked azabicyclic heterocycles useful for treating dementia” (Beecham Group p.l.c., priority 1989, dated 1999).

Structures are written as SMILES. Counter-ions that a name gives are not always drawn.

For orientation: IC50 means the concentration needed to halve the response being measured. Low readings indicate greater potency, high ones weaker potency.

For test [1], the target named is muscarinic receptors. Nature of the test: Radio ligand binding, displacement of muscarinic agonist 3H-Oxotremorine-M (3H-OXO-M), rat cerebral cortex membranes. On the set-up: species or system Hooded Lister rats. To be noted: 2 nM 3H-OXO-M, 2 mM magnesium chloride, tris pH 7.7, 37° C., 30 min.
Test [2] addresses muscarinic receptors. Nature of the test: Radio ligand binding, displacement of muscarinic antagonist 3H-Quinuclidinyl Benzilate (3H-QNB), rat cerebral cortex membranes. On the set-up: species or system Hooded Lister rats. The conditions noted are these: 0.27 nM 3H-QNB, tris pH 7.7, 37° C., 30 min.

Take `Cc1ccn(C2CN3CCC2CC3)n1` (racemic) [E1, (±) 3-(3-Methylpyrazol-1-yl)-1-azabicyclo[2.2.2]octane oxalate salt]: the IC50 came to 369 nM on muscarinic receptors [1] and 5000 nM on muscarinic receptors [2].
The matching figures for `c1cnn(C2CN3CCC2CC3)c1` (racemic) [E2, (±) 3-(Pyrazol-1-yl)-1-azabicyclo[2.2.2]octane dihydrochloride salt]: 1250 nM and 35000 nM.
With `Cc1ncn(C2CN3CCC2CC3)n1` (racemic) [E6, (±) 3-(3-Methyl-1,2,4-triazol-1-yl)-1-azabicyclo[2.2.2] octane dihydrochloride salt], the IC50 is 67.5 nM at muscarinic receptors [1] and 5600 nM on muscarinic receptors [2].
In the case of `c1ncn(C2CN3CCC2CC3)n1` (racemic) [E7, (±) 3-(1,2,4-Triazol-1-yl)-1-azabicyclo[2.2.2]octane dihydrochloride salt], the IC50 on muscarinic receptors [1] was 475 nM; on muscarinic receptors [2], 44000 nM.
The like results for `Cc1nnn(C2CN3CCC2CC3)n1` (racemic) [E10, (±) 3-(5-Methyltetrazol-2-yl)-1-azabicyclo[2.2.2]octane hydrochloride salt] were, in that order, 30 nM and 2800 nM.
The matching figures for `Nc1nnn(C2CN3CCC2CC3)n1` (racemic) [E11, (±) 3-(5-Aminotetrazol-2-yl)-1-azabicyclo[2.2.2]octane]: 38 nM and 6500 nM.
The like results for `Cc1cnn(C2CN3CCC2CC3)n1` (racemic) [E12, (±) 3-(4-Methyl-1,2,3-triazol-2-yl)-1-azabicyclo-[2.2.2]octane hydrochloride] were, in that order, 260 nM and 2100 nM.
Regarding `c1nnn(C2CN3CCC2CC3)n1` (racemic) [E15, (±) 3-(Tetrazol-2-yl)-1-azabicyclo[2.2.2]octane hydrochloride salt], the IC50 came to 242 nM on muscarinic receptors [1] and 28100 nM at muscarinic receptors [2].
The like results for `c1nnnn1C1CN2CCC1CC2` (racemic) [E16, (±) 3-(Tetrazol-1-yl)-1-azabicyclo[2.2.2]octane hydrochloride salt] were, in that order, 2750 nM and 110000 nM.
The like results for `c1ncn(C23CCCN(CC2)C3)n1` (racemic) [E27, (±) 5-(1,2,4-Triazol-1-yl)-1-azabicyclo[3.2.1]octane dihydrochloride salt] were, in that order, 12 nM and 3200 nM.
The matching figures for `Cc1ncn(C23CCCN(CC2)C3)n1` (racemic) [E28, (±) 5-(3-Methyl-1,2,4-triazol-1-yl)-1-azabicyclo-[3.2.1]octane dihydrochloride salt]: 17 nM and 2600 nM.
`c1nnnn1C12CCCN(CC1)C2` (racemic) [E30, (±) 5-(tetrazol-1-yl)-1-azabicyclo[3.2.1]octane] came in with an IC50 at muscarinic receptors [1] of 1400 nM.
In the case of `Cc1nnn(C23CCCN(CC2)C3)n1` (racemic) [E31, (±) 5-(5-Methyltetrazol-2-yl)-1-azabicyclo[3.2.1]octane], the values for the IC50 at muscarinic receptors [1] and at muscarinic receptors [2] were 11.5 nM and 2900 nM, respectively.
For the compound `Nc1nnn(C23CCCN(CC2)C3)n1` (racemic) [E33, (±) 5-(5-Aminotetrazol-2-yl)-1-azabicyclo[3.2.1]octane], the IC50 stood at 7.5 nM on muscarinic receptors [1] and 6200 nM at muscarinic receptors [2].
On muscarinic receptors [1], `Nc1nnnn1C12CCCN(CC1)C2` (racemic) [E34, (±) 5-(5-aminotetrazol-1-yl)-1-azabicyclo[3.2.1]octane] showed an IC50 of 1400 nM. In other words, the single-digit micromolar range.
For `Nc1ncn(C23CCCN(CC2)C3)n1` (racemic) [E36, (±) 5-(3-Amino-1,2,4-triazol-1-yl)-1-azabicyclo[3.2.1]octane], the IC50 at muscarinic receptors [1] was 19.5 nM; on muscarinic receptors [2] it was 6750 nM.
The like results for `Nc1ncnn1C12CCCN(CC1)C2` (racemic) [E37, (±) 5-(5-amino-1,2,4-triazol-1-yl)-1-azabicyclo[3.2.1]octane] were, in that order, 130 nM and 58000 nM.
As to `Nc1ncn(C2CN3CCC2CC3)n1` (racemic) [E38, (±) 3-(3-Amino-1,2,4-triazol-1-yl)-1-azabicyclo-[2.2.2]octane], the IC50 on muscarinic receptors [1] came out at 180 nM; at muscarinic receptors [2] it was 14500 nM.
In turn, `Nc1ncnn1C1CN2CCC1CC2` (racemic) [E39, (±) 3-(5-amino-1,2,4-triazol-1-yl)-1-azabicyclo[2.2.2]octane dihydrochloride salt] came in with an IC50 on muscarinic receptors [1] of 14500 nM.
Regarding `Brc1nnn(C2CN3CCC2CC3)n1` (racemic) [E40, (±) 3-[5-Bromotetrazol-2-yl]-1-azabicyclo[2.2.2]octane oxalate salt], the figures for the IC50 at muscarinic receptors [1] and at muscarinic receptors [2] were 19.7 nM and 488 nM, respectively.
For the compound `Clc1nnn(C2CN3CCC2CC3)n1` (racemic) [E44, (±) 3-(5-Chlorotetrazol-2-yl)-1-azabicyclo[2.2.2]octane oxalate salt], the values for the IC50 at muscarinic receptors [1] and on muscarinic receptors [2] were 31.8 nM and 725 nM, respectively.
Consider `N#Cc1nnn(C2CN3CCC2CC3)n1` (racemic) [E46, (±) 3-(5-Cyanotetrazol-2-yl)-1-azabicyclo[2.2.2]octane oxalate salt], for which the results for the IC50 on muscarinic receptors [1] and at muscarinic receptors [2] were 1400 nM and 7750 nM, respectively.
The like results for `Brc1ncn(C2CN3CCC2CC3)n1` (racemic) [E47, (±) 3-(3-Bromo-1,2,4-triazol-1-yl)-1-azabicyclo[2.2.2]-octane oxalate salt] were, in that order, 100 nM and 3300 nM.
As to `Clc1ncn(C2CN3CCC2CC3)n1` (racemic) [E48, (±) 3-(3-Chloro-1,2,4-triazol-1-yl)-1-azabicyclo[2.2.2] octane oxalate salt], the IC50 on muscarinic receptors [1] worked out at 195 nM; at muscarinic receptors [2], 9000 nM.
The like results for `Clc1nnn(C23CCCN(CC2)C3)n1` (racemic) [E49, (±) 5-(5-Chlorotetrazol-2-yl)-1-azabicyclo[3.2.1]octane oxalate salt] were, in that order, 3.2 nM and 500 nM.
The like results for `Brc1nnn(C23CCCN(CC2)C3)n1` (racemic) [E50, (±) 5-(5-Bromotetrazol-2-yl)-1-azabicyclo[3.2.1]octane] were, in that order, 6.5 nM and 410 nM.
The like results for `Cc1ncn([C@@H]2CN3CC[C@@H]2C3)n1` (relative stereo) [E8, (±) exo-3-(3-Methyl-1,2,4-triazol-1-yl)-1-azabicyclo-[2.2.1]heptane dihydrochloride salt] were, in that order, 22 nM and 6300 nM.
As for `c1ncn([C@@H]2CN3CC[C@@H]2C3)n1` (relative stereo) [E9, (±) exo-3-(1,2,4-Triazol-1-yl)-1-azabicyclo[2.2.1]heptane dihydrochloride salt], the IC50 is 48 nM on muscarinic receptors [1] and 43000 nM at muscarinic receptors [2].
As to `Nc1nnn([C@H]2C[C@@H]3CCN(C3)C2)n1` (relative stereo) [E17, (±) exo-3-(5-Aminotetrazol-2-yl)-1-azabicyclo[3.2.1] octane hydrochloride], the values for the IC50 on muscarinic receptors [1] and at muscarinic receptors [2] were 170 nM and 2700 nM, respectively.
On to `Nc1nnn([C@@H]2CN3CC[C@@H]2C3)n1` (relative stereo) [E18, (±) exo-3-(5-Aminotetrazol-2-yl)-1-azabicyclo[2.2.1] heptane], for which the results for the IC50 on muscarinic receptors [1] and at muscarinic receptors [2] were 2.62 nM and 4300 nM, respectively.
The like results for `c1nnn([C@@H]2CN3CC[C@@H]2C3)n1` (relative stereo) [E19, (±) exo-3-(Tetrazol-2-yl)-1-azabicyclo[2.2.1]heptane hydrochloride salt] were, in that order, 30 nM and 22300 nM.
The matching figures for `Cc1nnn([C@@H]2CN3CC[C@@H]2C3)n1` (relative stereo) [E20, (±) exo-3-(5-Methyltetrazol-2-yl)-1-azabicyclo[2.2.1] heptane hydrochloride salt]: 4.5 nM and 3000 nM.
The like results for `Cc1nnnn1[C@@H]1CN2CC[C@@H]1C2` (relative stereo) [E21, (±) exo-3-(5-Methyltetrazol-1-yl)-1-azabicyclo[2.2.1] heptane hydrochloride salt] were, in that order, 6600 nM and 310000 nM.
Regarding `c1nnn([C@H]2C[C@@H]3CCN(C3)C2)n1` (relative stereo) [E22, (±) exo-3-(Tetrazol-2-yl)-1-azabicyclo[3.2.1]octane hydrochloride salt], the IC50 on muscarinic receptors [1] is 153 nM; at muscarinic receptors [2] it was 55000 nM.
The like results for `CCc1nnn([C@@H]2CN3CC[C@@H]2C3)n1` (relative stereo) [E23, (±) exo-3-(5-Ethyltetrazol-2-yl)-1-azabicyclo[2.2.1] heptane hydrochloride salt] were, in that order, 325 nM and 3300 nM.
Take `Cc1cnn([C@@H]2CN3CC[C@@H]2C3)n1` (relative stereo) [E25, (±) exo-3-(4-Methyl-1,2,3-triazol-2-yl)-1-azabicyclo-[2.2.1]heptane hydrochloride salt]: the IC50 at muscarinic receptors [1] amounted to 180 nM; at muscarinic receptors [2] it was 22000 nM.
With `Brc1nnn([C@@H]2CN3CC[C@@H]2C3)n1` (relative stereo) [E41, (±) exo-3-(5-Bromotetrazol-2-yl)-1-azabicyclo[2.2.1]heptane oxalate salt], the results for the IC50 at muscarinic receptors [1] and on muscarinic receptors [2] were 6.5 nM and 1500 nM, respectively.
As for `Clc1nnn([C@@H]2CN3CC[C@@H]2C3)n1` (relative stereo) [E42, (±) exo-3-(5-Chlorotetrazol-2-yl)-1-azabicyclo[2.2.1]heptane oxalate salt], the IC50 at muscarinic receptors [1] came out at 7.6 nM; on muscarinic receptors [2] it was 700 nM.
The matching figures for `Ic1nnn([C@@H]2CN3CC[C@@H]2C3)n1` (relative stereo) [E43, (±) exo-3-(5-Iodotetrazol-2-yl)-1-azabicyclo[2.2.1]heptane oxalate salt]: 42 nM and 330 nM.
Take `Brc1ncn([C@@H]2CN3CC[C@@H]2C3)n1` (relative stereo) [E54, (±) exo-3-(3-Bromo-1,2,4-triazol-1-yl)-1-azabicyclo-[2.2.1]heptane oxalate salt]: the results for the IC50 at muscarinic receptors [1] and on muscarinic receptors [2] were 32 nM and 4400 nM, respectively.
The matching figures for `Cc1ncn(C2=CN3CCC2CC3)n1` [E5, 3-(3-Methyl-1,2,4-triazol-1-yl)-1-azabicyclo[2.2.2]oct-2-ene dihydrochloride]: 651 nM and 30300 nM.
